Measured values from US10702521B2, “Methods for treating neisseria gonorrhoeae infection with substituted 1,2-dihydro-2A,5,8A-triazaacenaphthylene-3,8-diones” (priority 2014, dated 2020).
Structures can show the parent of a compound that is named as a salt. Where two headings read alike, the source gives them in different places.

Tested on: Mycobacterium tuberculosis H37Rv
Experiment: Mycobacterium tuberculosis H37Rv Inhibition Assay (resazurin MIC)
Format: cell-based
[1] = 144 h, H37Rv strain, six days incubation, resazurin fluorescence after 48 hours, read-out: MIC value
[2] = read-out: MIC value, H37Rv strain, six days incubation, resazurin fluorescence after 48 hours
[3] = 144 h, read-out: MIC value, H37Rv strain, six days incubation, resazurin fluorescence after 48 hours

Row | SMILES | MIC [3] [µg/mL] | also measured
1 | O=C1CSc2ccc(CNC3CCN(CC4Cn5c(=O)ccc6ccc(=O)n4c65)CC3)cc2N1 (racemic) [Example 12, 1-[(4-{[(3-Oxo-3,4-dihydro-2H-1,4-benzothiazin-6-yl)methyl]amino}-1-piperidinyl)methyl]-1,2-dihydro-4H,9H-imidazo[1,2,3-ij]-1,8-naphthyridine-4,9-dione hydrochloride (2:1 mixture of R:S)] | – | MIC [1]: < 2 µg/mL
2 | O=c1ccc2ccc(=O)n3c2n1CC3CN1CCC(NCc2cc3c(cn2)OCCS3)CC1 (racemic) [Example 63] | – | MIC (H37Rv strain, six days incubation, resazurin fluorescence after 48 hours, read-out: MIC value): < 2 µg/mL
3 | O=c1ccc2ccc(=O)n3c2n1CC3CN1CCC(NCc2cc3c(cn2)OCS3)CC1 (centres unmarked) [Example 2, 1-({4-[([1,3]Oxathiolo[5,4-c]pyridin-6-ylmethyl)amino]-1-piperidinyl}methyl)-1,2-dihydro-4H,9H-imidazo[1,2,3-ij]-1,8-naphthyridine-4,9-dione hydrochloride] | – | MIC [2]: < 2 µg/mL
4 | O=c1ccc2ccc(=O)n3c2n1C[C@H]3CN1CCC(NCc2cc3c(cn2)OCS3)CC1 [Example 5A, (1R)-1-({4-[([1,3]Oxathiolo[5,4-c]pyridin-6-ylmethyl)amino]-1-piperidinyl}methyl)-1,2-dihydro-4H,9H-imidazo[1,2,3-ij]-1,8-naphthyridine-4,9-dione hydrochloride] | < 2 | –
5 | O=c1ccc2ccc(=O)n3c2n1C[C@H]3CN1CCC(NCc2cc3c(cn2)OCCS3)CC1 [Example 6A, (1R)-1-({4-[(2,3-Dihydro[1,4]oxathiino[2,3-c]pyridin-7-ylmethyl)amino]-1-piperidinyl}methyl)-1,2-dihydro-4H,9H-imidazo[1,2,3-ij]-1,8-naphthyridine-4,9-dione hydrochloride] | – | MIC [2]: < 2 µg/mL
6 | O=c1ccc2ccc(=O)n3c2n1C[C@H]3CN1CCC(NCc2cc3c(cn2)CCCC3)CC1 [Example 7, (1R)-1-({4-[(5,6,7,8-Tetrahydro-3-isoquinolinylmethyl)amino]-1-piperidinyl}methyl)-1,2-dihydro-4H,9H-imidazo[1,2,3-ij]-1,8-naphthyridine-4,9-dione hydrochloride] | < 2 | –
7 | O=c1ccc2ccc(=O)n3c2n1C[C@H]3CN1CCC(NCc2cc3c(cn2)CCC3)CC1 [Example 8, (1R)-1-({4-[(6,7-Dihydro-5H-cyclopenta[c]pyridin-3-ylmethyl)amino]-1-piperidinyl}methyl)-1,2-dihydro-4H,9H-imidazo[1,2,3-ij]-1,8-naphthyridine-4,9-dione hydrochloride] | < 2 | –
8 | O=c1cnc2ccc(=O)n3c2n1C[C@H]3CN1CCC(NCc2cc3c(cn2)OCS3)CC1 [Example 13A, (1R)-1-({4-[([1,3]Oxathiolo[5,4-c]pyridin-6-ylmethyl)amino]-1-piperidinyl}methyl)-1,2-dihydro-3H,8H-2a,5,8a-triazaacenaphthylene-3,8-dione hydrochloride] | < 2 | –
9 | O=c1cnc2ccc(=O)n3c2n1C[C@H]3CN1CCC(NCc2cc3c(cn2)OCCS3)CC1 [Example 14, (1R)-1-({4-[(2,3-Dihydro[1,4]oxathiino[2,3-c]pyridin-7-ylmethyl)amino]-1-piperidinyl}methyl)-1,2-dihydro-3H,8H-2a,5,8a-triazaacenaphthylene-3,8-dione hydrochloride] | < 2 | –
10 | O=c1ccc2ncc(=O)n3c2n1C[C@H]3CN1CCC(NCc2cc3c(cn2)OCS3)CC1 [Example 16A, (2R)-2-({4-[([1,3]Oxathiolo[5,4-c]pyridin-6-ylmethyl)amino]-1-piperidinyl}methyl)-1,2-dihydro-3H,8H-2a,5,8a-triazaacenaphthylene-3,8-dione hydrochloride] | < 2 | –
11 | Cl.O=c1ccc2ncc(=O)n3c2n1C[C@H]3CN1CCC(NCc2cc3c(cn2)OCCS3)CC1 [Example 19A, (2R)-2-({4-[(2,3-Dihydro[1,4]oxathiino[2,3-c]pyridin-7-ylmethyl)amino]-1-piperidinyl}methyl)-1,2-dihydro-3H,8H-2a,5,8a-triazaacenaphthylene-3,8-dione hydrochloride] | – | MIC [1]: < 2 µg/mL
